This note sets out measurements from PubChem BioAssay (NCI).

Among the test systems are CAKI-1 renal; CCRF-CEM leukemia; HCC-2998 colon; HCT-15 colon; K-562 leukemia; MDA-N; NCI-H460 lung; SF-539 CNS; SW-620 colon; MALME-3M melanoma.
Assay in all cases: DTP human tumour cell line panel, 48 h

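Results reflect a 48-hour exposure of cells in 96-well plates to compound at five concentrations. TGI: total growth inhibition.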

For `OC1(c2cc3ccccc3s2)CCCCC1`, the concentration for total growth inhibition (TGI) with CAKI-1 renal was above 100 µM; in the assay on CCRF-CEM leukemia it was 66.7 µM; in the assay with HCC-2998 colon it was above 100 µM; in the assay on HCT-15 colon, above 100 µM; in the assay on K-562 leukemia it was above 100 µM; in the assay with MDA-N, above 100 µM. Moreover, the TGI with NCI-H460 lung, in the assay on SF-539 CNS and in the assay with SW-620 colon was above 100 µM each time.
As to `CNC(=O)c1cc(NC(=O)N(CCC#N)CCN(C(=O)N[C@@H](Cc2ccccc2)C(=O)N[C@@H](CC(C)C)C(=O)NC)c2ccccc2)ccc1OC`, the TGI with CAKI-1 renal is above 100 µM; with CCRF-CEM leukemia, above 100 µM; with HCT-15 colon, above 100 µM; in the assay on MALME-3M melanoma, 38.5 µM; with MDA-N it was above 100 µM; in the assay with NCI-H460 lung, 50.9 µM. For the same compound, the TGI was above 66.3 µM in the assay with SF-539 CNS and above 100 µM in the assay on SW-620 colon.
Regarding `CN(C)Cc1cc(O)c(O)c(CN(C)C)c1`, the total growth inhibition concentration (TGI) in the assay with CAKI-1 renal was above 100 µM; with CCRF-CEM leukemia, 61.8 µM; in the assay with HCC-2998 colon it was 81.8 µM; with HCT-15 colon, above 100 µM; with K-562 leukemia, above 100 µM; with MALME-3M melanoma, above 100 µM. In addition, the total growth inhibition concentration (TGI) was above 100 µM in the assay with MDA-N, 52.5 µM in the assay with NCI-H460 lung and above 100 µM with SW-620 colon.
For `CCCCc1ccc(Nc2ncc3[nH]cnc3n2)cc1`, the TGI in the assay on CAKI-1 renal is 36.4 µM; in the assay on CCRF-CEM leukemia it was above 100 µM; with HCC-2998 colon, 37.8 µM; in the assay on HCT-15 colon, 38.5 µM; in the assay with K-562 leukemia it was above 100 µM; with MALME-3M melanoma, 40.6 µM. Further, the values for the TGI in the assay on MDA-N, in the assay on SF-539 CNS and in the assay with SW-620 colon were above 100 µM, 56.5 µM and 42.6 µM, respectively.
`O=C(CCCCCCCCC(=O)N1C(=O)CC(=O)N(c2cccc(Cl)c2)C1=S)N1C(=O)CC(=O)N(c2cccc(Cl)c2)C1=S`: the total growth inhibition concentration (TGI) in the assay with CAKI-1 renal, with CCRF-CEM leukemia, in the assay with HCC-2998 colon, in the assay with HCT-15 colon, with MALME-3M melanoma and in the assay with MDA-N was above 100 µM each time. The concentration for total growth inhibition (TGI) in the assay with NCI-H460 lung was above 100 µM.
Consider `[N-]=[N+]=CC(=O)OCC1SCCCS1`, for which the total growth inhibition concentration (TGI) in the assay on CAKI-1 renal, with CCRF-CEM leukemia, with HCC-2998 colon, in the assay with HCT-15 colon, in the assay on K-562 leukemia and in the assay with MALME-3M melanoma was above 100 µM each time. In addition, the TGI in the assay with MDA-N, in the assay on NCI-H460 lung and in the assay on SW-620 colon was above 100 µM throughout.
`O=C1C=C(Br)c2c(Br)sc(Br)c21`: the total growth inhibition concentration (TGI) is 26.6 µM in the assay with CAKI-1 renal; 28.1 µM with HCC-2998 colon; 20.5 µM in the assay on HCT-15 colon; above 36.7 µM in the assay with K-562 leukemia; 35.2 µM in the assay on MALME-3M melanoma; above 52 µM with MDA-N. The TGI in the assay on NCI-H460 lung was above 61.8 µM; with SF-539 CNS it was 18.2 µM; in the assay with SW-620 colon, above 20.6 µM.
Turning to `CN(NC(=O)CCCl)C1=NCCCCN1`, the TGI in the assay with CCRF-CEM leukemia, in the assay with HCC-2998 colon, in the assay on HCT-15 colon, in the assay on K-562 leukemia, in the assay on MALME-3M melanoma and in the assay with MDA-N was above 100 µM each time. In addition, the TGI in the assay on NCI-H460 lung, in the assay with SF-539 CNS and in the assay on SW-620 colon was above 100 µM throughout.
Turning to `O=S1(=O)c2ccccc2C(=NO)c2ccccc21`, the TGI with CAKI-1 renal, in the assay with CCRF-CEM leukemia, in the assay with HCC-2998 colon, in the assay with HCT-15 colon, with K-562 leukemia and in the assay on MDA-N was above 100 µM throughout. The concentration for total growth inhibition (TGI) with NCI-H460 lung, in the assay on SF-539 CNS and in the assay with SW-620 colon was above 100 µM in each case.
Take `COC(=O)c1cc(C#N)[nH]c1-c1ccc(C)s1`: the total growth inhibition concentration (TGI) with CAKI-1 renal, in the assay on CCRF-CEM leukemia, with HCC-2998 colon, in the assay on HCT-15 colon, with K-562 leukemia and in the assay on MDA-N was above 100 µM throughout. Moreover, the TGI in the assay with NCI-H460 lung, in the assay on SF-539 CNS and with SW-620 colon was above 100 µM throughout.
For `COc1ccc(-c2c(N)n(-c3cccc(C(=O)O)c3)c(=O)c3cc([N+](=O)[O-])ccc23)cc1`, the total growth inhibition concentration (TGI) in the assay on CAKI-1 renal, in the assay on CCRF-CEM leukemia, in the assay with HCC-2998 colon, in the assay on HCT-15 colon, in the assay on K-562 leukemia and with MDA-N was above 100 µM in each case. Also, the TGI in the assay with NCI-H460 lung, in the assay on SF-539 CNS and in the assay with SW-620 colon was above 100 µM in each case.
For `[N-]=[N+]=NCc1cccc(Nc2cc(=O)[nH]c(=O)[nH]2)c1`, the TGI with CAKI-1 renal, with CCRF-CEM leukemia, in the assay on HCC-2998 colon, in the assay on HCT-15 colon, with K-562 leukemia and in the assay with MALME-3M melanoma was above 100 µM throughout. Moreover, the total growth inhibition concentration (TGI) in the assay on MDA-N, in the assay with SF-539 CNS and with SW-620 colon was above 100 µM in each case.
For the compound `O=C(c1ccccc1)c1ccc2nc(-c3c(Cl)c(Cl)c(Cl)c(Cl)c3C(=O)N/N=C/c3ccccc3)[nH]c2c1`, the TGI was above 100 µM in the assay with CAKI-1 renal; above 100 µM in the assay on CCRF-CEM leukemia; above 100 µM in the assay with HCT-15 colon; above 100 µM with K-562 leukemia; 83 µM in the assay on MALME-3M melanoma; 93.7 µM with MDA-N. For the same compound, the TGI in the assay with SF-539 CNS and in the assay with SW-620 colon was above 100 µM throughout.
Take `Cc1nc2ccc(S(=O)(=O)O)cc2c(=O)n1-c1ccc(C(=O)NN2C(=O)C(Cl)C2c2ccccc2O)cc1` (stereo not given): the TGI in the assay on CAKI-1 renal, in the assay on CCRF-CEM leukemia, in the assay on HCT-15 colon, with K-562 leukemia, in the assay with MALME-3M melanoma and in the assay with MDA-N was above 100 µM throughout. In addition, the TGI with SF-539 CNS and with SW-620 colon was above 100 µM in each case.
As to `COc1ccc(N=N/C(=N/NC(=O)c2ccccc2)c2ccc(N(CCC#N)CCC#N)cc2C)cc1`, the total growth inhibition concentration (TGI) in the assay on CAKI-1 renal, in the assay on CCRF-CEM leukemia, with HCC-2998 colon, with HCT-15 colon, with K-562 leukemia and with MALME-3M melanoma was above 100 µM throughout. Besides, the TGI in the assay on MDA-N is 44.4 µM; in the assay with NCI-H460 lung it was above 100 µM; in the assay on SF-539 CNS it was 70 µM.

The term TGI denotes the concentration giving total growth inhibition. A low value points to more potent growth arrest.
